In patent US11027029B2, “Peptide thiourea derivative, radioisotope labeled compound containing same, and pharmaceutical composition containing same as active ingredient for treating or diagnosing prostate cancer” (CELLBION CO., LTD, priority 2015, dated 2021):

Target: T1, PSMA positive 22Rv1 cells (Homo sapiens, UniProt Q04609)
T1 construct: endogenous in cells; host or cells: 22Rv1 prostate cancer cells
Assay: In vitro competitive inhibition cell binding test against I-125-MIP-1072
Settings: 1.85 kBq I-125-MIP-1072, 1 hour, nonlinear regression analysis, read-out: IC50 (inhibition of binding between 22Rv1 cells and I-125-MIP-1072)
Protocol: To perform in vitro competitive inhibition cell binding test of Ga-NOTA-SCN-GUL, the following experiment was conducted.
The PSMA positive prostate cancer cell line 22Rv1 was loaded in a 24-well plate at the density of 2×10^5 cells/well, followed by culture in a 37[…] 5% CO2 incubator for 24 hours. Ga-NOTA-SCN-GUL prepared in Example 2 was diluted 2-fold serially with the cell culture medium containing 0.5% bovine serum albumin. The diluted sample was added to the cultured cells (0.5 mL/well), to which 1.85 kBq (S)-2-(3-((S)-1-carboxy-5-((4-iodobenzyl)amino)pentyl)ureido)pentanedioic acid (I-125-MIP-1072) was added (0.5 mL/well). After well mixed, the mixture was cultured in a 37[…] 5% CO2 incubator for 1 hour. The culture medium was discarded, and the cells were washed with fresh medium twice, to which 0.5% sodium dodecyl sulfate (SDS) dissolved in PBS was added (1 mL/well). The mixture was gently shaken for complete dissolving, and then loaded in a 5 mL disposable plastic test tube. Then, the radioactivity was measured with a gamma counter.

T1 sequence (Q04609 whole entry): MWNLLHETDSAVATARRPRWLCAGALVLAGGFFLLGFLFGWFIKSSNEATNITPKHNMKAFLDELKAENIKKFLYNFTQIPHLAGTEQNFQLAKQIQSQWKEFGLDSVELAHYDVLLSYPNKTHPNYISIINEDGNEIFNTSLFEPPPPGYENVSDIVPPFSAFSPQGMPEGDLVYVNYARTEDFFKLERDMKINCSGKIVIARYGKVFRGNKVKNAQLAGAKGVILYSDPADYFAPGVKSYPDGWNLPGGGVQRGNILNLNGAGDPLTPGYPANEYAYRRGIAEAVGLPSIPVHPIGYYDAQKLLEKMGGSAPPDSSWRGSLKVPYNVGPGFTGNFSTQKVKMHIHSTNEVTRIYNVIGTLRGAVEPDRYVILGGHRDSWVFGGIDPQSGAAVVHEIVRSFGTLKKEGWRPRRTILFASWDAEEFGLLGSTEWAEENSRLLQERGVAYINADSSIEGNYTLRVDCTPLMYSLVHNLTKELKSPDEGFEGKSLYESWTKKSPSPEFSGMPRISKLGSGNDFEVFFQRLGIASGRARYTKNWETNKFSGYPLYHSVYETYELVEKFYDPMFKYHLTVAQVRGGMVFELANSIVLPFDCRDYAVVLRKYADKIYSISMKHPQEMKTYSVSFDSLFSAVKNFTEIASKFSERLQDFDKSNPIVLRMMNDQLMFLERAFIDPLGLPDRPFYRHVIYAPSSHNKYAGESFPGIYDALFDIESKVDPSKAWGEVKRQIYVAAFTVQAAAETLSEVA

In the case of `O=C(O)CCC(NC(=O)NC(CCCCNC(=S)Nc1ccc(CC2CN3CCN4CCN2CC(=O)[O][Ga]([O]C(=O)C4)[O]C(=O)C3)cc1)C(=O)O)C(=O)O` (stereo not shown) [Example 2], the IC50 is reported as 18.3 nM.
